One experiment deals with T1, GLP methyltransferase (Homo sapiens, UniProt Q9H9B1).
T1 construct: purchased Cayman Chemical 10755
T1 sequence (Q9H9B1 1-1298): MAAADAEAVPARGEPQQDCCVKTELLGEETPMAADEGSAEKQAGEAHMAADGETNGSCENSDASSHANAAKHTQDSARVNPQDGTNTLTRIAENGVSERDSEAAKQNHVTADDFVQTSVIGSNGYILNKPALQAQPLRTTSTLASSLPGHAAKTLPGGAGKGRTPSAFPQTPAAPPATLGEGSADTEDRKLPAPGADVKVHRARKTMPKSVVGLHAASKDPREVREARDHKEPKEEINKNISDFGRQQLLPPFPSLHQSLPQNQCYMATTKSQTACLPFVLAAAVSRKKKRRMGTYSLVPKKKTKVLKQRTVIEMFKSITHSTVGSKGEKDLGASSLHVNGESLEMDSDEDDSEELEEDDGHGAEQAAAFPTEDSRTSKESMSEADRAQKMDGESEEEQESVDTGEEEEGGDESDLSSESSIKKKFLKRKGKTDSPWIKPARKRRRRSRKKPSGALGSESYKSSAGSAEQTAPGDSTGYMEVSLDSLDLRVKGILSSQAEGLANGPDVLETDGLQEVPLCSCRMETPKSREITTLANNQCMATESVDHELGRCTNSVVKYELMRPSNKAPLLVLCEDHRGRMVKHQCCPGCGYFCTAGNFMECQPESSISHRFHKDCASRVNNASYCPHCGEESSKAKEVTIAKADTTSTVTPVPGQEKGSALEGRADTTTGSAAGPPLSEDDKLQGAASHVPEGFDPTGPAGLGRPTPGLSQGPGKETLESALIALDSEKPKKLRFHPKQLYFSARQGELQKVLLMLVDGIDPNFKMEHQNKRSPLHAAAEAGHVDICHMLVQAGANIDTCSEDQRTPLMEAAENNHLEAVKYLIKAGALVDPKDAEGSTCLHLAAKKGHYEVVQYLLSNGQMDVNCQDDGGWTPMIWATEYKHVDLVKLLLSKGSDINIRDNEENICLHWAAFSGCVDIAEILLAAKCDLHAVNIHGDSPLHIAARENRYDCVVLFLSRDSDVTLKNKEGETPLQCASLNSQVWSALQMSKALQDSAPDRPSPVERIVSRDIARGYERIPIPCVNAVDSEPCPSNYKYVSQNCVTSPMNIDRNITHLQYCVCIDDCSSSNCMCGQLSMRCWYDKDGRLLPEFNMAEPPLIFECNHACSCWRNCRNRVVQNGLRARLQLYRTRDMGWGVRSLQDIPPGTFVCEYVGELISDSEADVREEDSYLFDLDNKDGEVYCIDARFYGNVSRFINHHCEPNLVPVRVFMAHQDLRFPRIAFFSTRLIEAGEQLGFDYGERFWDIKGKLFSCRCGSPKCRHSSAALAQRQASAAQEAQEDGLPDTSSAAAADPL
As to the kind of experiment: In vitro methylation of K180 dimethylated H1.0 peptide with GLP, products by LC-MS. Particulars: K180 dimethylated H1.0 peptide as substrate, only H1.0K180 and H1.0K174 further methylated. In kind it is biochemical. The protocol: In order to identify the precise sites of methylation by G9A and GLP methyltransferases on histone H1.0, in vitro methylation assays were performed and subsequently analyzed by Liquid Chromatography and High-resolution Mass Spectrometry (LC-MS) analysis. Methylation reactions were set up using either G9A methyltransferase (NEB, M0235S, Lot #0031201) or GLP methyltransferase (Cayman Chemical, 10755). The methyl donor in each reaction was unlabeled S-Adenosyl-L-Methionine (NEB, B9003S). […]
For the Liquid Chromatography and High-resolution Mass Spectrometry (LC-MS) analysis, samples were prepared as described above and about 1 μg o the product was injected onto a Thermo Scientific Easy nLC system configured with a 10 cm×100 um trap column and a 25 cm×100 um ID resolving column. […] This ensured optimal full-scan data for quantification. […]
Protein identification was performed using Thermo Scientific Proteome Discoverer version 1.4 (including Sequest and Percolator algorithms) using RefSeqHuman sequence database. […] Protein quantification was performed using Pinpoint version 1.4 software. The Pinpoint quantification workflow included importing the Proteome Discoverer .msf files as spectral libraries. Identified peptides were subsequently quantified in MS .raw files using the Pinpoint peak finding, chromatographic alignment and area calculation algorithms. […]

A further experiment relates to G9A methyltransferase. As to the kind of experiment: In vitro methylation of K180me2 H1.0 peptide with G9A, products by LC-MS. In kind it is biochemical. The procedure:
In order to identify the precise sites of methylation by G9A and GLP methyltransferases on histone H1.0, in vitro methylation assays were performed and subsequently analyzed by Liquid Chromatography and High-resolution Mass Spectrometry (LC-MS) analysis. Methylation reactions were set up using either G9A methyltransferase (NEB, M0235S, Lot #0031201) or GLP methyltransferase (Cayman Chemical, 10755). The methyl donor in each reaction was unlabeled S-Adenosyl-L-Methionine (NEB, B9003S). The H1.0 substrate in each reaction was either unmodified H1.0 peptide labeled with biotin (ThermoFisher Scientific, Biotin-[…] (SEQ ID NO:69)), di-methylated H1.0 peptide (ThermoFisher Scientific, Biotin-[…]^(me2)PK (SEQ ID NO:70)), or full-length recombinant human H1.0 (NEB, M2501S). Methylation reactions were set up in triplicate for each condition as follows: 1×HMT reaction buffer (50 mM Tris-HCl, 5 mM MgCl2, 4 mM dithiothreitol, pH 9.0); 10U G9A or GLP Methyltransferase; 3.2 mM S-Adenosyl-L-Methionine; 500 ng unmodified or modified H1.0 peptide, or 1 μg full-length protein; final volume 10 μl. As controls, reactions were set up as above but without any methyltransferase present. All reactions were incubated in a thermocycler at 37° C. for 1 hour, and subsequently stopped by incubating on ice for 5 minutes. Samples were frozen at −80° C. prior to LC-MS analysis.
For the Liquid Chromatography and High-resolution Mass Spectrometry (LC-MS) analysis, samples were prepared as described above and about 1 μg o the product was injected onto a Thermo Scientific Easy nLC system configured with a 10 cm×100 um trap column and a 25 cm×100 um ID resolving column. Buffer A was 98% water, 2% methanol, and 0.2% formic acid. […] This ensured optimal full-scan data for quantification. […]
Protein identification was performed using Thermo Scientific Proteome Discoverer version 1.4 (including Sequest and Percolator algorithms) using RefSeqHuman sequence database. […] Protein quantification was performed using Pinpoint version 1.4 software. The Pinpoint quantification workflow included importing the Proteome Discoverer .msf files as spectral libraries. Identified peptides were subsequently quantified in MS .raw files using the Pinpoint peak finding, chromatographic alignment and area calculation algorithms.
To further address the sensitivity and specificity of G9A methylation to lysine 180 of H1.0 peptide, the K180me2 peptide (H1.0 AA 165-182) was used as a substrate in similar in vitro methylation experiments. Only minor quantitates of further methylated peptide were detected: H1.0K166me1K180me2 (1.27% of the total peptide in the reaction), H1.0K174me1K180me3 (1.06% of the total peptide in the reaction) and H1.0K174me3K175me3K177me1K180me2 (0.35% of the total peptide in the reaction) as shown in FIG. 9B FIG. 10.

The next experiment relates to H1.0K180me2 in hADSCs. As to the kind of experiment: Western blot / localization of H1.0K180me2 in hADSCs after bleomycin (acute DNA damage). The experiment is classed as cell-based, human. The procedure: (§1) For replicative senescence, hADSCs were grown in culture until reaching replicative exhaustion (PD 41-46). For acute DNA damage conditions, SR hADSCs (PD 4-10) were treated with 50μg/ml bloemycin sulfate (Cayman Chemical, 13877) in growth media for 2 hours. For genotoxic stress induced senescence, SR hADSCs (PD 4-10) were treated with 50 μg/ml bloemycin sulfate (Cayman Chemical, 13877) in growth media for 2 hours then washed with PBS and given fresh growth media without bleomycin. Cells were then grown for 3 days before collection.
Material for western blot analysis (cultured cells or tissue) was lysed in ice-cold RIPA lysis buffer (Thermo Scientific 89900) and sonicated using a Covaris S2 sonicator (10% duty cycle, Intensity 5, Bursts per minute 100, 120 seconds). Total protein concentration in each sample was quantified using Quick Start Bradford 1× Dye Reagent (BioRad, 5000205) following manufacturer's protocol. Samples were then mixed with NuPAGE LDS sample loading buffer (ThermoFisher, NP0007) and NuPAGE sample reducing buffer (ThermoFisher, NP0004), and heat denatured at 70° C. for 10 minutes. […] Proteins were detected with HRP secondary antibodies listed above for 1 hour at RT followed by ECL Western Blotting Substrate (ThermoFisher, 32106) using manufacturer's instructions. […]

Experiment [1] concerns secretion of H1.0K180me2 from hADSCs. Kind of experiment: Slot blot of culture media of hADSCs treated with bleomycin. In kind it is cell-based, human. The protocol:
0.5 μl of serum sample or known amounts of synthesized peptide were diluted in 200 μl TBS. Samples were then heat denatured at 70° C. for 10 minutes before being transferred to nitrocellulose membrane using a vacuum manifold slot blot apparatus (BioRad, 1706542). The membrane was blocked with 5% non-fat milk in PBS-T for 30 minutes at RT then immunoblotted with the above primary antibodies at 4° C. over night. Proteins were detected with HRP secondary antibodies listed above for 1 hour at RT followed by ECL Western Blotting Substrate (ThermoFisher, 32106) using manufacturers instructions. All washes between steps were with PBS-T. Membranes were imaged with Omega LUM-C imaging system (Gel Company). Slot blot bands for each sample were then quantified using ImageJ.
SR hADSCs, hADSCs treated with bleomycin for 2 hours (acute DNA damage) and hADSCs treated with bleomycin and allowed to senesce for 3 days (genotoxic stress induced senescence) were lysed and fractionated into soluble and chromatin bound fractions. These fractions were then subjected to LC-MS/MS analysis. Peptide expression levels were taken as the total area under the LC-MS/MS relative intensity curve, and individual peptides were unambiguously assigned to proteins using Pinpoint software, version 1.4 (Thermo Scientific). The areas of all peptides assigned to an individual protein were summed to yield protein expression levels, which were normalized against the total protein library size for each sample. For each cellular fraction, H1.0 peptide abundance is represented as a percentage of total H1.0 peptides observed in each condition. Normalized absolute values of H1.0 peptide levels in each fraction were also shown. […] Culture media from SR hADSCs treated with bleomycin was collected for slot blot analysis with α-H1.0 and α-H1.0K180me2 antibodies to assess secretion of H1.0 to the extracellular matrix (ECM). The experiment was carried out according to methods described in Example 1. […] This signifies secretion out of the cells.

The subject of experiment [2] is chromatin bound H1.0 in hADSCs. As to the kind of experiment: LC-MS/MS of soluble and chromatin bound fractions of hADSCs after bleomycin. The experiment is classed as cell-based, human. The procedure:
as §1
SR hADSCs, hADSCs treated with bleomycin for 2 hours (acute DNA damage) and hADSCs treated with bleomycin and allowed to senesce for 3 days (genotoxic stress induced senescence) were lysed and fractionated into soluble and chromatin bound fractions. These fractions were then subjected to LC-MS/MS analysis. Peptide expression levels were taken as the total area under the LC-MS/MS relative intensity curve, and individual peptides were unambiguously assigned to proteins using Pinpoint software, version 1.4 (Thermo Scientific). The areas of all peptides assigned to an individual protein were summed to yield protein expression levels, which were normalized against the total protein library size for each sample. For each cellular fraction, H1.0 peptide abundance is represented as a percentage of total H1.0 peptides observed in each condition. […]

[3] abbreviates: K180me2 peptide (H1.0 AA 165-182) as substrate.

“Also recorded” adds a separate entry of the source. Ends that are not written are not given here. Me2 = dimethylated (lysine)

G9A methyltransferase, sequence (Q9Z148 969-1263 limits assumed): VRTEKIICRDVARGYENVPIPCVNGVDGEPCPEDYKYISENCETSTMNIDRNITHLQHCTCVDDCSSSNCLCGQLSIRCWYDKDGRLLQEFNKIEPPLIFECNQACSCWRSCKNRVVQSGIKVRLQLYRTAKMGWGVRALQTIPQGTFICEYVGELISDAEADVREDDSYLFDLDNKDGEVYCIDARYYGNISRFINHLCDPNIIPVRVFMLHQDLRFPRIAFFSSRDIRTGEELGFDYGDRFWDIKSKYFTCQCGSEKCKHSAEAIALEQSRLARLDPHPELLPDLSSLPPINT

“AKPVKASKPKKAKPVK(me2)PK (chain 1 AKPVKASKPKKAKPVK(Me2)PK; chain 2 AKPVKASKPKKAKPVK(Me2)PK; not fully specified (N-terminus)) [K180 dimethylated H1.0 peptide, H1.0 AA 165-182 peptide dimethylated at K180]” registered a peptides further methylated in the experiment with GLP methyltransferase of 1.02%. For the same substance, in the experiment with G9A methyltransferase (setting [3]), the “H1.0K166me1K180me2, % of the total peptide in the reaction” value is 1.27%; the “H1.0K174me1K180me3, % of the total peptide in the reaction” value is 1.06%; the “H1.0K174me3K175me3K177me1K180me2, % of the total peptide in the reaction” value turned out to be 0.35%. The same substance displayed a peptides further methylated with G9A methyltransferase (dimethylated H1.0 peptide as substrate) of 2.64%.

Take bleomycin: in the experiment on H1.0K180me2 in hADSCs (SR hADSCs treated with bleomycin), the “localization of H1.0K180me2” value is reported as “H1.0K180me2 localized to the cytoplasm”. The H1.0K180me2 on chromatin entry in the experiment with H1.0K180me2 in hADSCs (bleomycin 50 μg/ml 2 hours, chromatin bound fraction, western blot) is reported as “methylation of H1.0K180 on the chromatin upon DNA damage; also recorded: H1.0K180me2 is found on chromatin”. Moreover, in experiment [1] (after 24 hours of bleomycin treatment), the “secreted H1.0K180me2 in cell culture media” value was “secreted H1.0K180me2 was also readily detected”. For the same substance, the “time of maximal H1.0K180me2 secretion” value in experiment [1] (conditioned medium, time course after bleomycin) is no more than 48 h. The DFFB secretion entry in experiment [1] (upon GSI-SEN, starting 48 hours after treatment) is “increase in DFFB secretion”. The “chromatin bound H1.0, % of total” value in experiment [2] (acute DNA damage (bleomycin 2 hours)) is listed as roughly 60%; in experiment [2] (genotoxic stress induced senescence (bleomycin 2 hours, then 3 days)) it was roughly 30%.

Source of the values: patent publication US10921324B2, “Compositions and methods related to the methylation of histone H1.0 protein” (Aelan Cell Technologies, Inc., priority 2016, dated 2021).
